According to patent US4764508A, “Complexes of flavanolignans with phospholipids, preparation thereof and associated pharmaceutical compositions” (Inverni Della Beffa S.p.A., priority 1985, dated 1988):

Assays:
[1] = tested on: liver poisoning with carbon tetrachloride; assay: Anti-hepatotoxic activity of silybin and of 1:1 silybin-phosphatidylcholine complex in the rat, after poisoning with carbon tetrachloride; type: in vivo; conditions: oral; for reduction in GOT and GPT (in words): carbon tetrachloride, equimolecular doses; for GOT: poisoned controls 339.40 ± 59.07; for GOT, % change (in brackets) / GPT, % change (in brackets): versus poisoned controls
[2] = in vivo, po
Text: phosphatidylcholine complex in the rat, after oral administration.

[3] = conclusion from literature reports; cited from earlier work
[4] = Solubility in chloroform, ethyl ether or benzene
[5] = Pharmacokinetic comparison between equimolar doses of silybin and of 1:1 silybin:phosphatidylcholine complex in man, oral administration; conditions: 0.00 = below sensitivity of the method (35 ng/ml)
[6] = Pharmacokinetic comparison between equimolar doses of silybin and of 1:1 silybin-phosphatidylcholine complex in the rat, after oral administration
[7] = silybin 25 mg/kg, complex 65.8 mg/kg (equivalent to 25 mg silybin), poisoned controls 145.40 ± 31.43
[8] = silybin 25 mg/kg, complex 65.8 mg/kg (equivalent to 25 mg silybin)
[9] = silybin 25 mg/kg, complex 65.8 mg/kg
[10] = silybin 250 mg/kg (P < .05), complex 658 mg/kg (equivalent to 250 mg silybin; P < .01)
[11] = silybin 250 mg/kg, complex 658 mg/kg (equivalent to 250 mg silybin), poisoned controls 145.40 ± 31.43, °° P < .01
[12] = silybin 250 mg/kg, complex 658 mg/kg

| Molecule | reduction in GOT and GPT (in words) [1] | GPT [1, 7] [U/L] | GOT [1, 8] [U/L] | GOT, % change (in brackets) [1, 9] [%] | GPT, % change (in brackets) [1, 9] [%] | GOT [1, 10] [U/L] | GPT [1, 11] [U/L] | GOT, % change (in brackets) [1, 12] [%] | GPT, % change (in brackets) [1, 12] [%] | further results |
| --- | --- | --- | --- | --- | --- | --- | --- | --- | --- | --- |
| 1:1 Silybin/soy phosphatidylcholine complex [1:1 silybin-phosphatidylcholine complex] | significant reduction | 65.90 | 181.80 | -46.4 | -54.7 | 148.10 | 46.90 | -56.4 | -67.8 | absorption in the rat (in words) [2]: markedly in favour of the complexed form |
| COc1cc(C2Oc3cc([C@H]4Oc5cc(O)cc(O)c5C(=O)[C@@H]4O)ccc3OC2CO)ccc1O (stereo partly drawn) [Silybin, silybin] | only a slight reduction | 94.30 | 252.60 | -25.6 | -35.2 | 200.00 | 94.90 | -41.1 | -34.8 | oral bioavailability (in words) [3]: does not have really high or adequate bioavailability; solubility in chloroform, ethyl ether or benzene [4]: insoluble; concentration at sampling time 0.25 h ([5]; complex 700, silybin 270, 0.25 h): 0.00 ng/mL; concentration at sampling time 0.50 h ([5]; complex 700, silybin 270, 0.50 h): 0.00 ng/mL; concentration at sampling time 1.00 h ([5]; complex 700, silybin 270, 1.00 h): 0.00 ng/mL; concentration at sampling time 2.00 h ([5]; complex 700, silybin 270, 2.00 h): 0.00 ng/mL; concentration at sampling time 3.00 h ([5]; complex 700, silybin 270, 3.00 h): 0.00 ng/mL; concentration at sampling time 4.00 h ([5]; complex 700, silybin 270, 4.00 h): 0.00 ng/mL; concentration at sampling time 6.00 h ([5]; complex 700, silybin 270, 6.00 h): 0.00 ng/mL; concentration at sampling time 8.00 h ([5]; complex 700, silybin 270, 8.00 h): 0.00 ng/mL; concentration at 0.25 h ([6]; in vivo, po, 200 mg/kg): 70 ng/mL; concentration at 0.5 h ([6]; in vivo, po, 200 mg/kg): 60 ng/mL; concentration at 1 h ([6]; in vivo, po, 200 mg/kg): 110 ng/mL; concentration at 2 h ([6]; in vivo, po, 200 mg/kg): 50 ng/mL; concentration at 3 h ([6]; in vivo, po, 200 mg/kg): 50 ng/mL; concentration at sampling time 4.00 h ([6]; oral, complex 520 mg/kg (equivalent to 200 mg/kg silybin), silybin 200 mg/kg, 4.00 h, 0.00 = nondeterminable, below limit of 0.05 mcg/ml): 0 ng/mL; concentration at sampling time 6.00 h ([6]; oral, complex 520 mg/kg (equivalent to 200 mg/kg silybin), silybin 200 mg/kg, 6.00 h, 0.00 = nondeterminable, below limit of 0.05 mcg/ml): 0 ng/mL |
